Reference: US7981903B2, “2-[2-{phenylamino}-1H-pyrrolo[2,3-D]pyrimidin-4-yl)amino] benzamide derivatives as IGF-1R inhibitors for the treatment of cancer” (GlaxoSmithKline LLC, priority 2007, dated 2011)

Legend:
human IR (hIR) = molecular target: T1, human IR (hIR) (Homo sapiens, UniProt P06213); test: TR-FRET kinase assay of purified hIR; type: biochemical; conditions: activated hIR 0.5 nM, 10 μM ATP, values given as pIC50 category
T1 construct: containing amino acid residues 979-1382 of human IR; made in house; host or cells: Sf9 cells (baculovirus), same process as hIGF1R
T1 sequence (P06213 979-1382): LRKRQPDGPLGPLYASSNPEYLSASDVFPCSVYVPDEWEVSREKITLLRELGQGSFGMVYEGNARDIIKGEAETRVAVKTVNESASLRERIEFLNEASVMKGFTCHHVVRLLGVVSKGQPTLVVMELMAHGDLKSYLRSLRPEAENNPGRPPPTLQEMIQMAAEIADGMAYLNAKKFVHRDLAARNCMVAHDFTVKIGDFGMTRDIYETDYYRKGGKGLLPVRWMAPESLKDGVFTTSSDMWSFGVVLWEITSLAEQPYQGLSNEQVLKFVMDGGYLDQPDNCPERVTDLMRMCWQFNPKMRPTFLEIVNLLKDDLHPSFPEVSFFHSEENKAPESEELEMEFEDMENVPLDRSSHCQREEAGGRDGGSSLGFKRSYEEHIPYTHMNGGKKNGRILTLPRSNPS

human IGF1R (hIGF1R) = molecular target: T2, human IGF1R (hIGF1R) (Homo sapiens, UniProt P08069); test: TR-FRET kinase assay of purified hIGF1R; type: biochemical; conditions: activated hIGF1R 0.5 nM, 10 μM ATP, values given as pIC50 category, read-out: IGF-1R pIC50 (converted)
T2 construct: containing amino acid residues 957-1367 of human IGF1R; made in house; host or cells: Sf9 cells (baculovirus)
T2 sequence (P08069 957-1367): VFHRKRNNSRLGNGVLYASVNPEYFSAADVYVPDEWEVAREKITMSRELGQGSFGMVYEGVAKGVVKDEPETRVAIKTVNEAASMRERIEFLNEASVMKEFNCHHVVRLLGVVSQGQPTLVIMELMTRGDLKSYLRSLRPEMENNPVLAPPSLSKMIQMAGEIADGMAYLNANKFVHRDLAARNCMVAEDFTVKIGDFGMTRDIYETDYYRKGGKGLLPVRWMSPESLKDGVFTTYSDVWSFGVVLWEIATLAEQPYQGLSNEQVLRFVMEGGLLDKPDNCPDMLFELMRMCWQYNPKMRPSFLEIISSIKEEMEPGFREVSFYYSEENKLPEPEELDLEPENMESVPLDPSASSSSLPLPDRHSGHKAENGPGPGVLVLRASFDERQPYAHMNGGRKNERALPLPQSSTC

[1] = molecular target: T3, NIH-3T3 cells overexpressing human IGF-1R (Homo sapiens, UniProt P08069); test: IGF-1R cellular autophosphorylation (DELFIA); type: cell-based
T3 construct: expressed in transfected cells; host or cells: NIH-3T3 (mouse fibroblasts)
T3 sequence (P08069 31-1367): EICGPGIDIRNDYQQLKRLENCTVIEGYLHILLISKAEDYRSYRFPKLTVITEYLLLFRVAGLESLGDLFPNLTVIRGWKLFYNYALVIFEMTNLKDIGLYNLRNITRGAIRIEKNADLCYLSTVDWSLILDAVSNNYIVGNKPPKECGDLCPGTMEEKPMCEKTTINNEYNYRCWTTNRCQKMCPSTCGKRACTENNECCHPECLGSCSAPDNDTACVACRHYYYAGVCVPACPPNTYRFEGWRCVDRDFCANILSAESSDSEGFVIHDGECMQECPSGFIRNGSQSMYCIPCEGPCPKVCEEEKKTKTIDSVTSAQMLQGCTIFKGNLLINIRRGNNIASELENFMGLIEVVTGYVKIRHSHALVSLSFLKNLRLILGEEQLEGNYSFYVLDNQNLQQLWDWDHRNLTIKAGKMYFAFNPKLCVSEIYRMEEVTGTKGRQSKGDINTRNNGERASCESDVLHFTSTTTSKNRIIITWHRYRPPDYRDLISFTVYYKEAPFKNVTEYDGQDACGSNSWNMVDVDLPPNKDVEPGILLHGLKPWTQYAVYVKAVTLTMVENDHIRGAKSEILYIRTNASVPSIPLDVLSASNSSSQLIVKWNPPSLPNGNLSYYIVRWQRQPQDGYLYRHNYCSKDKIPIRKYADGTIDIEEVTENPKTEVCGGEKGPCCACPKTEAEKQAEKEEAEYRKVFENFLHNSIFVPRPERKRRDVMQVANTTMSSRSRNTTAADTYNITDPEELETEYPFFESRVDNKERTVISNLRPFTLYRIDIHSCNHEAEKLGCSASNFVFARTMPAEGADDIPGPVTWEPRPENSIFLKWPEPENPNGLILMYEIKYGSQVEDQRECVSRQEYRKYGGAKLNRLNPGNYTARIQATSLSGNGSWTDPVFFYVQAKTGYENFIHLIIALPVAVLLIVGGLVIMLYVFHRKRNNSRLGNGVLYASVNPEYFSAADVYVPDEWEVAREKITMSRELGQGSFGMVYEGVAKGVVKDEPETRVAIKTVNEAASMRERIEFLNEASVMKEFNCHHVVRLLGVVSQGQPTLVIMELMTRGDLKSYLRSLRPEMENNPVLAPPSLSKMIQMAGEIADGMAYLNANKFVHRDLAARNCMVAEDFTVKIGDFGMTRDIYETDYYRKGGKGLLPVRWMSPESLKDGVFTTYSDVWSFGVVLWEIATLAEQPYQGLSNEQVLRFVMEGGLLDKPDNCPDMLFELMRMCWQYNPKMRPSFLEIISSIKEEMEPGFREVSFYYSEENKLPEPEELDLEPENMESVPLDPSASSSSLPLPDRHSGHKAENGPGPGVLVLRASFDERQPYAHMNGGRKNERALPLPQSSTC
Procedure, shortened: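 Receptor autophosphorylation measured by DELFIA, capturing IGF-1R or IRβ and detecting with europium anti-pTyr, reported as percent of IGF-1- or insulin-stimulated signal. Compounds (30 uM to 1.5 nM) added 2 h before ligand, then 15 min stimulation (IGF-1 30 ng/ml or insulin 3 ug/ml).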

Row | IC50 (human IR (hIR)) | IC50 (human IGF1R (hIGF1R)) | IC50 [1] | Compound
1 | 1.26 to 3.98 nM | 1.26 to 3.98 nM | 100 to 500 nM | COc1ccc(N2CCN(C(C)C)CC2)cc1Nc1nc(Nc2ccccc2C(N)=O)c2cc[nH]c2n1 [Example 10, 2-[(2-{[5-[4-(1-methylethyl)-1-piperazinyl]-2-(methyloxy)phenyl]amino}-1H-pyrrolo[2,3-d]pyrimidin-4-yl)amino]benzamide]
2 | 0.251 to 1 nM | 0.251 to 1 nM | < 100 nM | CN(C)CC(=O)Nc1ccc(Cl)c(Nc2nc(Nc3ccccc3C(N)=O)c3cc[nH]c3n2)c1 [Example 18, 2-{[2-({2-chloro-5-[(N,N-dimethylglycyl)amino]phenyl}amino)-1H-pyrrolo[2,3-d]pyrimidin-4-yl]amino}benzamide]
3 |  | 1.26 to 3.98 nM | 100 to 500 nM | COc1cc(N2CCN(C(C)C)CC2)ccc1Nc1nc(Nc2cccc(F)c2C(N)=O)c2cc[nH]c2n1 [Example 46, 2-fluoro-6-[(2-{[4-[4-(1-methylethyl)-1-piperazinyl]-2-(methyloxy)phenyl]amino}-1H-pyrrolo[2,3-d]pyrimidin-4-yl)amino]benzamide]
4 |  | 1.26 to 3.98 nM | < 100 nM | COc1cc(N2CCN(CCS(C)(=O)=O)CC2)c(C)cc1Nc1nc(Nc2cccc(F)c2C(N)=O)c2cc[nH]c2n1 [Example 52, 2-fluoro-6-({2-[(5-methyl-2-(methyloxy)-4-{4-[2-(methylsulfonyl)ethyl]-1-piperazinyl}phenyl)amino]-1H-pyrrolo[2,3-d]pyrimidin-4-yl}amino)benzamide]
5 | 0.251 to 1 nM | 1.26 to 3.98 nM | < 100 nM | COc1cc(N2CCOC[C@@H]2C)ccc1Nc1nc(Nc2ccc(F)cc2C(N)=O)c2cc[nH]c2n1 [Example 61, 5-fluoro-2-[(2-{[4-[(3S)-3-methyl-4-morpholinyl]-2-(methyloxy)phenyl]amino}-1H-pyrrolo[2,3-d]pyrimidin-4-yl)amino]benzamide]
6 | 0.251 to 1 nM | 1.26 to 3.98 nM | 100 to 500 nM | COc1cc(N2CCN(C(C)C)CC2)ccc1Nc1nc(Nc2ccc(Br)cc2C(N)=O)c2cc[nH]c2n1 [Example 68, 5-bromo-2-[(2-{[4-[4-(1-methylethyl)-1-piperazinyl]-2-(methyloxy)phenyl]amino}-1H-pyrrolo[2,3-d]pyrimidin-4-yl)amino]benzamide]
7 | 0.251 to 1 nM | 0.251 to 1 nM | < 100 nM | COc1cc(C2=CCN(C(C)C)CC2)ccc1Nc1nc(Nc2cc(F)ccc2C(N)=O)c2cc[nH]c2n1 [Example 72, 4-fluoro-2-[(2-{[4-[1-(1-methylethyl)-1,2,3,6-tetrahydro-4-pyridinyl]-2-(methyloxy)phenyl]amino}-1H-pyrrolo[2,3-d]pyrimidin-4-yl)amino]benzamide]
8 | 0.251 to 1 nM | 0.251 to 1 nM | < 100 nM | COc1cc(N2CCC(N3CC[C@H](F)C3)CC2)ccc1Nc1nc(Nc2cc(F)ccc2C(N)=O)c2cc[nH]c2n1 [Example 75, 4-fluoro-2-[(2-{[4-{4-[(3S)-3-fluoro-1-pyrrolidinyl]-1-piperidinyl}-2-(methyloxy)phenyl]amino}-1H-pyrrolo[2,3-d]pyrimidin-4-yl)amino]benzamide]
9 | 1.26 to 3.98 nM | 1.26 to 3.98 nM | < 100 nM | COc1cc(N2CCOCC2)ccc1Nc1nc(Nc2cc(F)ccc2C(N)=O)c2cc[nH]c2n1 [Example 83, 4-fluoro-2-[(2-{[2-(methyloxy)-4-(4-morpholinyl)phenyl]amino}-1H-pyrrolo[2,3-d]pyrimidin-4-yl)amino]benzamide]

The remaining lines, values behind:

Row | Compound | IC50 (human IR (hIR)) | IC50 (human IGF1R (hIGF1R)) | IC50 [1]
10 | COc1ccc(N2CCN(C)CC2)cc1Nc1nc(Nc2ccccc2C(N)=O)c2cc[nH]c2n1 [Example 9, 2-[(2-{[2-(methyloxy)-5-(4-methyl-1-piperazinyl)phenyl]amino}-1H-pyrrolo[2,3-d]pyrimidin-4-yl)amino]benzamide] | 1.26 to 3.98 nM | 1.26 to 3.98 nM | 100 to 500 nM
11 | COc1cc(N2CCC(N3CC[C@H](F)C3)CC2)ccc1Nc1nc(Nc2cccc(F)c2C(N)=O)c2cc[nH]c2n1 [Example 43, 2-fluoro-6-[(2-{[4-{4-[(3S)-3-fluoro-1-pyrrolidinyl]-1-piperidinyl}-2-(methyloxy)phenyl]amino}-1H-pyrrolo[2,3-d]pyrimidin-4-yl)amino]benzamide] | 1.26 to 3.98 nM | 1.26 to 3.98 nM | 100 to 500 nM
12 | COc1cc(N2CCC(N3CC[C@@H](F)C3)CC2)ccc1Nc1nc(Nc2cccc(F)c2C(N)=O)c2cc[nH]c2n1 [Example 44, 2-fluoro-6-[(2-{[4-{4-[(3R)-3-fluoro-1-pyrrolidinyl]-1-piperidinyl}-2-(methyloxy)phenyl]amino}-1H-pyrrolo[2,3-d]pyrimidin-4-yl)amino]benzamide] | 1.26 to 3.98 nM | 1.26 to 3.98 nM | > 500 nM
13 | COc1cc(N2CCN(C(C)C)CC2)c(F)cc1Nc1nc(Nc2cccc(F)c2C(N)=O)c2cc[nH]c2n1 [Example 48, 2-fluoro-6-[(2-{[5-fluoro-4-[4-(1-methylethyl)-1-piperazinyl]-2-(methyloxy)phenyl]amino}-1H-pyrrolo[2,3-d]pyrimidin-4-yl)amino]benzamide] |  | 1.26 to 3.98 nM | 100 to 500 nM
14 | COc1cc(N2CCOC[C@@H]2C)ccc1Nc1nc(Nc2cccc(F)c2C(N)=O)c2cc[nH]c2n1 [Example 49, 2-fluoro-6-[(2-{[4-[(3S)-3-methyl-4-morpholinyl]-2-(methyloxy)phenyl]amino}-1H-pyrrolo[2,3-d]pyrimidin-4-yl)amino]benzamide] | 1.26 to 3.98 nM | 1.26 to 3.98 nM | 100 to 500 nM
15 | COc1c(Nc2nc(Nc3cccc(F)c3C(N)=O)c3cc[nH]c3n2)ccc(N2CCN(C(C)C)CC2)c1F [Example 51, 2-fluoro-6-[(2-{[3-fluoro-4-[4-(1-methylethyl)-1-piperazinyl]-2-(methyloxy)phenyl]amino}-1H-pyrrolo[2,3-d]pyrimidin-4-yl)amino]benzamide] |  | 1.26 to 3.98 nM | > 500 nM
16 | COc1cc(N2CCC(N3CCOCC3)CC2)ccc1Nc1nc(Nc2ccc(F)cc2C(N)=O)c2cc[nH]c2n1 [Example 59, 5-fluoro-2-{[2-({2-(methyloxy)-4-[4-(4-morpholinyl)-1-piperidinyl]phenyl}amino)-1H-pyrrolo[2,3-d]pyrimidin-4-yl]amino}benzamide] | 0.251 to 1 nM | 1.26 to 3.98 nM | < 100 nM
17 | CCCN1CCC=C(c2ccc(Nc3nc(Nc4cc(F)ccc4C(N)=O)c4cc[nH]c4n3)c(OC)c2)C1 [Example 70, 4-fluoro-2-[(2-{[2-(methyloxy)-4-(1-propyl-1,2,5,6-tetrahydro-3-pyridinyl)phenyl]amino}-1H-pyrrolo[2,3-d]pyrimidin-4-yl)amino]benzamide] | 0.251 to 1 nM | 0.251 to 1 nM | < 100 nM
18 | CCCN1CCCC(c2ccc(Nc3nc(Nc4cc(F)ccc4C(N)=O)c4cc[nH]c4n3)c(OC)c2)C1 (centres unmarked) [Example 71, 4-fluoro-2-[(2-{[2-(methyloxy)-4-(1-propyl-3-piperidinyl)phenyl]amino}-1H-pyrrolo[2,3-d]pyrimidin-4-yl)amino]benzamide] | 0.251 to 1 nM | 0.251 to 1 nM | < 100 nM
19 | CCCN1CCC(c2ccc(Nc3nc(Nc4cc(F)ccc4C(N)=O)c4cc[nH]c4n3)c(OC)c2)CC1 [Example 73, 4-fluoro-2-[(2-{[2-(methyloxy)-4-(1-propyl-4-piperidinyl)phenyl]amino}-1H-pyrrolo[2,3-d]pyrimidin-4-yl)amino]benzamide] | 0.251 to 1 nM | 0.251 to 1 nM | < 100 nM
20 | COc1cc(N2CCC[C@H](O)C2)ccc1Nc1nc(Nc2cc(F)ccc2C(N)=O)c2cc[nH]c2n1 [Example 74, 4-fluoro-2-[(2-{[4-[(3S)-3-hydroxy-1-piperidinyl]-2-(methyloxy)phenyl]amino}-1H-pyrrolo[2,3-d]pyrimidin-4-yl)amino]benzamide] | 0.251 to 1 nM | 0.251 to 1 nM | 100 to 500 nM
21 | COc1cc(N2CCC(N3CC[C@@H](F)C3)CC2)ccc1Nc1nc(Nc2cc(F)ccc2C(N)=O)c2cc[nH]c2n1 [Example 76, 4-fluoro-2-[(2-{[4-{4-[(3R)-3-fluoro-1-pyrrolidinyl]-1-piperidinyl}-2-(methyloxy)phenyl]amino}-1H-pyrrolo[2,3-d]pyrimidin-4-yl)amino]benzamide] | 0.251 to 1 nM | 0.251 to 1 nM | < 100 nM
22 | COc1cc(N2CCC(N3CCCC(F)(F)C3)CC2)ccc1Nc1nc(Nc2cc(F)ccc2C(N)=O)c2cc[nH]c2n1 [Example 77, 2-[(2-{[4-(3,3-difluoro-1,4′-bipiperidin-1′-yl)-2-(methyloxy)phenyl]amino}-1H-pyrrolo[2,3-d]pyrimidin-4-yl)amino]-4-fluorobenzamide] | 0.251 to 1 nM | 1.26 to 3.98 nM | 100 to 500 nM
23 | COc1cc(N2CCN(CC3CC3)CC2)ccc1Nc1nc(Nc2cc(F)ccc2C(N)=O)c2cc[nH]c2n1 [Example 81, 2-[(2-{[4-[4-(cyclopropylmethyl)-1-piperazinyl]-2-(methyloxy)phenyl]amino}-1H-pyrrolo[2,3-d]pyrimidin-4-yl)amino]-4-fluorobenzamide] | 1.26 to 3.98 nM | 1.26 to 3.98 nM | < 100 nM
24 | COc1cc(N2CCN(C(C)C)CC2)c(OC)cc1Nc1nc(Nc2cc(F)ccc2C(N)=O)c2cc[nH]c2n1 [Example 82, 4-fluoro-2-[(2-{[4-[4-(1-methylethyl)-1-piperazinyl]-2,5-bis(methyloxy)phenyl]amino}-1H-pyrrolo[2,3-d]pyrimidin-4-yl)amino]benzamide] | 1.26 to 3.98 nM | 1.26 to 3.98 nM | < 100 nM
